Tests used:
[1] = tested on: carrageenin edema of the right hind paw of rats; experiment: Carrageenin paw edema, systemic (subcutaneous, back) administration, edema inhibition ED40; assay type: in vivo, Wister male rats; details: Rattus norvegicus, sc; s.c. into back, 60 min before 1% carrageenin; edema 3 hours after carrageenin
Description: (§1) Using Wister male rats weighting 130-150 g, each group consisting of 6 rats, the local selectivity of the anti-inflammatory action was investigated by the systemic and local administration of the compounds of the present invention and comparative compounds.
In the evaluation of systemic administration, a test compound suspended into 1% gum arabic was subcutaneously injected into back of rats at doses of 0.01, 0.03, 0.1, and 0.3 mg/kg (5 ml/kg). After 60 minutes following the administration, 1% carrageenin (0.1 ml) was injecte into the plantar surface of the right hind paw. The paw volume was measured with a plethysmometer before and 3 hours after the carrageenin injection. The value was compared with the corresponding value of the control group, thus obtaining the edema inhibition rate, from which ED40 was determined.

[2] = tested on: carrageenin edema of the paw of rats; experiment: Carrageenin paw edema, local (into paw) administration, edema inhibition ED40; local selectivity (A)/(B); assay type: in vivo, Wister male rats; details: ratio of ED40 systemic to ED40 local
Description: as §1
For the local administration test, the test compound suspended in 1% carrageenin was subcutaneously injected into a paw in the rats at doses of 0.01, 0.03, and 1.0 μg/paw (0.1 ml/paw). Three hours after the carrageenin injection, the volume of the edema was compared with the corresponding value of the control group, thus obtaining the edema inhibition rate, from which ED40 was determined.
The ratio of the ED40 values thus obtained was taken for the evaluation of the local selectivity. [formula]
The higher the value, the greater is the selectivity.

[3] = tested on: human skin; experiment: Skin vessel constriction activity (local anti-inflammatory effect on human skin); assay type: in vivo, human (healthy male subjects); details: probit method
Description: Skin vessel constriction effects on human skin of the present invention were investigated according to the following method. Dexamethasone 17,21-dipropionate which is known as a very strong anti-inflammatory agent for external application was used as a comparative compound.
Fifteen (15) healthy male subjects who were free from any skin disease anamnesis, such as eczema, dermatosis, or the like, received the test. Test compounds were diluted with 95% ethanol to make 6 sample solutions with different concentrations; highest concentration: 1×10^-2, lowest concentration: 1×10^-7. A strap to which acryl cells (diameter: 12 mm, thickness: 2 mm, height, 3 mm) were fixed was applied to the back of each subject. The test compound solution was then dropped with a pippet, 0.02 ml per drop, according to a key-code allocated at random. After drying by air, the strap was peeled off. The coated area was covered with a polyvinylidene chloride film, of which the periphery was fixed with a strap for the patch test. The period of time during which the covering was applied was 16 hours. The judgment was made according to the following standard four times at 1, 2, 5, and 8 hours after the removal of the film.
++: The coated skin was strongly pale.
+: The coated skin was distinctly pale.
±: The coated skin was slightly pale.
The results were analyzed by the probit method to obtain the ED50 value (≥+) at which the coated area was clearly pale. The results are shown in Table 2, in which the relative value for the compounds of the present invention determined by taking the ED50 value for dexamethasone 17,21-dipropionate as 100 are given in parentheses.

[4] = 1 hour after removal of film (16 hours covering)
[5] = 2 hours after removal of film (16 hours covering)
[6] = 5 hours after removal of film (16 hours covering)
[7] = 8 hours after removal of film (16 hours covering)

SMILES | ED40 [1] [mg/kg] | Local Selectivity (A)/(B) [2] | ED50 value (≥ +) concentration [3, 4] | ED50 value (≥ +) concentration [3, 5] | ED50 value (≥ +) concentration [3, 6] | ED50 value (≥ +) concentration [3, 7]
CCCC(=O)OCC(=O)[C@@]1(OC(=O)CCC)[C@H](C)C[C@H]2[C@@H]3CCC4=CC(=O)C=C[C@]4(C)[C@@]3(F)[C@@H](O)C[C@@]21C [dexamethasone-17,21-dibutylate, reference compound] | 0.34 | 2.00 |  |  |  | 
C[C@@H]1C[C@H]2[C@@H]3CCC4=CC(=O)C=C[C@]4(C)[C@@]3(F)[C@@H](O)C[C@]2(C)[C@@]1(OC(=O)C1CC1)C(=O)COC(=O)C1CC1 [Compound No. 4, 9α-fluoro-11β,17,21-trihydroxy-16α-methylpregna-1,4-diene-3,20-dione 17,21-dicyclopropanecarboxylate] | 0.83 | 3.95 | 5.10 × 10^-4% | 3.17 × 10^-4% | 2.00 × 10^-3% | 1.36 × 10^-2%
CCCC(=O)O[C@]1(C(=O)CO)[C@H](C)C[C@H]2[C@@H]3CCC4=CC(=O)C=C[C@]4(C)[C@@]3(F)[C@@H](O)C[C@@]21C [dexamethasone-17-butylate, reference compound] | 0.18 | 0.62 |  |  |  | 
C[C@@H]1C[C@H]2[C@@H]3CCC4=CC(=O)C=C[C@]4(C)[C@@]3(F)[C@@H](O)C[C@]2(C)[C@@]1(OC(=O)C1CC1)C(=O)CO [Compound No. 1, 9α-fluoro-11β,17,21-trihydroxy-16α-methylpregna-1,4-diene-3,20-dione 17-cyclopropanecarboxylate] | 0.28 | 3.50 | 1.45 × 10^-4% | 1.19 × 10^-4% | 7.29 × 10^-4% | 1.24 × 10^-2%
CCC(=O)OCC(=O)[C@@]1(OC(=O)CC)[C@H](C)C[C@H]2[C@@H]3CCC4=CC(=O)C=C[C@]4(C)[C@@]3(F)[C@@H](O)C[C@@]21C [dexamethasone-17,21-dipropionate, Dexamethasone 17,21-dipropionate, reference compound] |  |  | 5.48 × 10^-4% | 4.11 × 10^-4% | 8.62 × 10^-3% | 3.19 × 10^-2%
